According to ChEMBL document CHEMBL1821646, “Design and synthesis of a biotinylated probe of COX-2 inhibitor nimesulide analog JCC76” (Bioorg Med Chem Lett, 2011):

Assays:
[1] = test system: SK-BR-3; experiment: Antiproliferative activity against human SKBR3 cells after 48 to 72 hrs by MTT assay; format: functional, cell-based
[2] = test system: SK-BR-3; experiment: Antiproliferative activity against human SKBR3 cells at 100 uM after 48 to 72 hrs by MTT assay; format: cell-based; conditions: sk-br-3, 100 µM

IC50 [1] [µM]	Structure (SMILES)	Activity [2]
83.7	Cc1ccc(C)c(COc2cc(NC(=O)C3CCCCC3)ccc2NS(C)(=O)=O)c1	
81.7	CCCCCCN(c1ccc(NC(=O)C2CCCCC2)cc1OCc1cc(C)ccc1C)S(C)(=O)=O	
13	COCCOCCN(c1ccc(NC(=O)C2CCCCC2)cc1OCc1cc(C)ccc1C)S(C)(=O)=O	
6	CCCCCC(=O)NCCCCCCN(c1ccc(NC(=O)C2CCCCC2)cc1OCc1cc(C)ccc1C)S(C)(=O)=O	
45.3	Cc1ccc(C)c(COc2cc(NC(=O)C3CCCCC3)ccc2N(CCCCCCNC(=O)c2ccc3ccccc3c2)S(C)(=O)=O)c1	
2.21	Cc1ccc(C)c(COc2cc(NC(=O)C3CCCCC3)ccc2N(CCCCCCNC(=O)CCCC[C@H]2SC[C@H]3NC(=O)N[C@H]32)S(C)(=O)=O)c1	
	O=C(O)CCCC[C@@H]1SC[C@@H]2NC(=O)N[C@@H]21 [BIOTIN]	Non-toxic
